The target of experiment [1] is T1, wild-type HIV reverse transcriptase (Human immunodeficiency virus type 1 group M subtype B, UniProt P04585).
T1 construct: wild-type and four mutant HIV reverse transcriptases
In words: Activity on wild type reverse transcriptase (Table 1 IC50 WT). The class given is biochemical. The method, then:
Using similar methods as described above, 2-[5-bromo-4-(4-cyclopropylnaphthalen-1-yl)-4H-[1,2,4]triazol-3-ylsulfanyl]-N-(2-methyl-4-sulfamoylphenyeacetamide and 2-[5-bromo-4-(4-ethylnaphthalen-1-yl)-4H-[1,2,4]triazol-3-ylsulfanyl]-N-(2-chloro-4-sulfamoylphenyl)-acetamide were synthesized, as were the N-4-carbamyl analog, 2-[5-bromo-4-(4-ethyl-naphthalen-1-yl)-4H-[1,2,4]triazol-3-ylsulfanyl]-N-(2-chloro-4-carbamoylphenyl)-acetamide and the N-4-carboxyl analog. Each of the compounds was tested against a panel of mutant HIV reverse transcriptases, including 20 of the 22 of the mutants that are found in about 2% or more of the patient samples that are resistant to the most widely used non-nucleoside HIV-RT inhibitor efavirenz ((4S)-6-chloro-4-(cyclopropylethynyl)-1,4-dihydro-4-(trifluoromethyl)-2H-3,1-benzoxazin-2-one). […] In most cases both criteria were met. […] […].
Compounds of the invention were tested against the wild-type and four mutant HIV reverse transcriptases. The results are listed in Table 1 as EC50 (nM) and IC50 (nM). In the Table, A represents <50 nM, B is between 50 and 100 nM, and C is >100 nM. ND is not determined.

For experiment [2], the target named is mutant HIV reverse transcriptases (Human immunodeficiency virus type 1, UniProt P12497, Y775L, cells depend on it). The class given is cell-based.
For experiment [3], the target named is mutant HIV reverse transcriptases (Human immunodeficiency virus type 1, UniProt P12497, Y768C, cells depend on it). The class given is cell-based.
The subject of experiment [4] is wild type HIV-1. In words: microbe, parasite or virus in culture. The experiment is classed as cell-based, human immunodeficiency virus type 1 (HIV-1).
Where [5] appears, read: Human immunodeficiency virus 1, Hela-JC53, read-out: EC50 WT.

Where two headings read alike, the source gives them in different places.

As usually defined, the IC50 is the concentration needed to halve the response being measured. Broadly, the EC50 is the midpoint of the concentration-response curve. As for `CCc1ccc(-n2c(SCC(=O)Nc3ccc(C(=O)O)cc3Cl)nnc2C(F)(F)F)c2ccccc12` [compound 16], the IC50 in experiment [1] is below 50 nM. Also, the EC50 in experiment [2] was above 100 nM; in experiment [3] it was 50 to 100 nM; in experiment [4] (setting [5]) it was below 50 nM.
Turning to `CCc1ccc(-n2c(CF)nnc2SCC(=O)Nc2ccc(C(=O)O)cc2Cl)c2ccccc12` [compound 17], the IC50 in experiment [1] is below 50 nM. Besides, the EC50 is above 100 nM in experiment [2], below 50 nM in experiment [3] and below 50 nM in experiment [4] (setting [5]).
Turning to `COc1ccc2c(C3CC3)ccc(-n3c(Br)nnc3SCC(=O)Nc3ccc(S(=O)(=O)O)cc3Cl)c2c1` [compound 19], the IC50 in experiment [1] (read-out: IC50 WT RT, wild-type (WT) RT) was below 50 nM. Also, the EC50 in experiment [2] is above 100 nM; in experiment [3], 50 to 100 nM; in experiment [4] (read-out: EC50 WT, wild-type (WT) HIV-1) it was 50 to 100 nM.
In experiment [1], `CCc1ccc(-n2c(Br)nnc2SCC(=O)Nc2ccc(S(=O)(=O)O)cc2Br)c2ccccc12` [compound 20] returned an IC50 below 50 nM. The 50% effective concentration (EC50) in experiment [2], in experiment [3] and in experiment [4] (setting [5]) was above 100 nM in each case.
In experiment [1], `O=C(CSc1nnc(Br)n1-c1ccc(C2CC2)cc1Cl)Nc1ccc(S(=O)(=O)O)cc1Cl` [compound 21] returned an IC50 below 50 nM. The EC50 in experiment [2] is above 100 nM; in experiment [3], above 100 nM; in experiment [4] (setting [5]), 50 to 100 nM.
In turn, `CCc1ccc(-n2c(Br)nnc2SCC(=O)Nc2ccc(C(=O)O)cc2Br)c2ccccc12` [compound 22] showed an IC50 in experiment [1] below 50 nM. Further, the EC50 in experiment [2] is 50 to 100 nM; in experiment [3], below 50 nM; in experiment [4] (setting [5]) it was below 50 nM.
In the case of `Cc1cc(C2CC2)c2ccccc2c1-n1c(Br)nnc1SCC(=O)Nc1ccc(C(=O)O)cc1Cl` [compound 23], the IC50 in experiment [1] was below 50 nM. Moreover, the EC50 in experiment [2], in experiment [3] and in experiment [4] (setting [5]) was below 50 nM throughout.
Turning to `O=C(CSc1nnc(Br)n1-c1ccc(C2CC2)cc1OC(F)(F)F)Nc1ccc(S(=O)(=O)O)cc1Cl` [compound 24], the IC50 in experiment [1] was below 50 nM. The EC50 in experiment [2], in experiment [3] and in experiment [4] (setting [5]) was above 100 nM in each case.
The compound `O=C(CSc1nnc(Br)n1-c1c(Cl)cc(C2CCC2)c2ccccc12)Nc1ccc(C(=O)O)cc1Cl` [compound 25] registered an IC50 in experiment [1] below 50 nM. Also, the EC50 in experiment [2], in experiment [3] and in experiment [4] (setting [5]) was below 50 nM throughout.
On to `O=C(CSc1nnc(Br)n1-c1ccc(C2CCC2)c2ccccc12)Nc1ccc(C(=O)O)cc1Cl` [compound 26], for which the IC50 in experiment [1] is below 50 nM. For the same compound, the EC50 in experiment [2], in experiment [3] and in experiment [4] (setting [5]) was below 50 nM throughout.
As for `COc1cccc2c(-n3c(Br)nnc3SCC(=O)Nc3ccc(C(=O)O)cc3Cl)cccc12` [compound 27], the IC50 in experiment [1] was below 50 nM. Besides, the EC50 in experiment [2] is above 100 nM; in experiment [3], below 50 nM; in experiment [4] (setting [5]), below 50 nM.
As for `CCc1cc(C2CC2)ccc1-n1c(Br)nnc1SCC(=O)Nc1ccc(C(=O)O)cc1Cl` [compound 29], the IC50 in experiment [1] is below 50 nM. Moreover, the EC50 in experiment [2] was above 100 nM; in experiment [3], below 50 nM; in experiment [4] (setting [5]), below 50 nM.
In turn, `O=C(CSc1nnc(Br)n1-c1ccc(C2CC2)cc1C(F)(F)F)Nc1ccc(C(=O)O)cc1Cl` [compound 30] yielded an IC50 in experiment [1] below 50 nM. Besides, the EC50 in experiment [2] is above 100 nM; in experiment [3] it was below 50 nM; in experiment [4] (setting [5]), below 50 nM.
As for `O=C(CSc1nnc(Br)n1-c1ccc(C2CC2)cc1Cl)Nc1ccc(C(=O)O)cc1Cl` [compound 31], the IC50 in experiment [1] is below 50 nM. Further, the EC50 was above 100 nM in experiment [2], below 50 nM in experiment [3] and below 50 nM in experiment [4] (setting [5]).
Regarding `O=C(CSc1nnc(Br)n1-c1cccc2c(OCC3CC3)cccc12)Nc1ccc(C(=O)O)cc1Cl` [compound 32], the IC50 in experiment [1] is above 100 nM. Further, the EC50 in experiment [2], in experiment [3] and in experiment [4] (setting [5]) was above 100 nM in each case.
For `Cc1cc(C2CC2)cc(C)c1-n1c(Br)nnc1SCC(=O)Nc1ccc(C(=O)O)cc1Cl` [compound 33], in experiment [1], the IC50 is below 50 nM. The EC50 in experiment [2] was above 100 nM; in experiment [3], below 50 nM; in experiment [4] (setting [5]), below 50 nM.
In experiment [1], `NS(=O)(=O)c1ccc(NC(=O)CSc2nnc(C(F)F)n2-c2ccc3c4c(cccc24)CC3)c(Cl)c1` [compound 36] showed an IC50 below 50 nM. Moreover, the EC50 in experiment [2], in experiment [3] and in experiment [4] (setting [5]) was below 50 nM in each case.
Consider `NS(=O)(=O)c1ccc(NC(=O)CSc2nnc(Br)n2-c2ccc3c4c(cccc24)CC3)c(Cl)c1` [compound 37], for which the IC50 in experiment [1] was below 50 nM. Also, the EC50 in experiment [2], in experiment [3] and in experiment [4] (setting [5]) was below 50 nM in each case.
`Cc1cc(S(N)(=O)=O)ccc1NC(=O)CSc1nnc(Br)n1-c1ccc2c3c(cccc13)CC2` [compound 38]: the IC50 in experiment [1] was below 50 nM. In addition, the EC50 in experiment [2], in experiment [3] and in experiment [4] (setting [5]) was below 50 nM in each case.
Consider `Cc1cc(S(N)(=O)=O)ccc1NC(=O)CSc1nnc(Br)n1-c1ccc(C2CC2)c2ccccc12` [compound 40], for which, in experiment [1], the IC50 is below 50 nM. The EC50 in experiment [2], in experiment [3] and in experiment [4] (setting [5]) was below 50 nM throughout.
As for `CCc1ccc(-n2c(C)nnc2SCC(=O)Nc2ccc(S(N)(=O)=O)cc2C)c2c1CCCC2` [compound 41], in experiment [1], the IC50 was below 50 nM. The EC50 is above 100 nM in experiment [2], below 50 nM in experiment [3] and below 50 nM in experiment [4] (setting [5]).
On to `CCc1ccc(-n2c(C)nnc2SCC(=O)Nc2ccc(S(N)(=O)=O)cc2Cl)c2c1CCCC2` [compound 43], for which, in experiment [1], the IC50 is below 50 nM. Also, the EC50 in experiment [2], in experiment [3] and in experiment [4] (setting [5]) was below 50 nM each time.
For `NS(=O)(=O)c1ccc(NC(=O)CSc2nnc(C(F)F)n2-c2ccc(C3CC3)c3ccccc23)c(Cl)c1` [compound 44], the IC50 in experiment [1] is below 50 nM. The EC50 in experiment [2], in experiment [3] and in experiment [4] (setting [5]) was below 50 nM in each case.
In the case of `Cc1cc(S(N)(=O)=O)ccc1NC(=O)CSc1nnc(C)n1-c1ccc(C)c2c1CCCC2` [compound 45], the IC50 in experiment [1] was below 50 nM. For the same compound, the concentration giving a half-maximal response (EC50) in experiment [2] was 50 to 100 nM; in experiment [3] it was below 50 nM; in experiment [4] (setting [5]), below 50 nM.
`Cc1ccc(-n2c(C)nnc2SCC(=O)Nc2ccc(S(N)(=O)=O)cc2Cl)c2c1CCCC2` [compound 46] registered an IC50 in experiment [1] below 50 nM. Further, the EC50 in experiment [2], in experiment [3] and in experiment [4] (setting [5]) was below 50 nM in each case.
The compound `CCc1ccc(-n2c(SCC(=O)Nc3ccc(S(N)(=O)=O)cc3Cl)nnc2C(F)F)c2c1CCCC2` [compound 47] showed an IC50 in experiment [1] below 50 nM. Also, the EC50 in experiment [2], in experiment [3] and in experiment [4] (setting [5]) was below 50 nM throughout.
Regarding `Cc1cc(S(N)(=O)=O)ccc1NC(=O)CSc1nnc(C(F)F)n1-c1ccc(C)c2c1CCCC2` [compound 48], the IC50 in experiment [1] is below 50 nM. Besides, the EC50 in experiment [2] was 50 to 100 nM; in experiment [3], below 50 nM; in experiment [4] (setting [5]) it was below 50 nM.
`CCc1ccc(-n2c(CF)nnc2SCC(=O)Nc2ccc(S(N)(=O)=O)cc2C)c2ccccc12` [compound 49] yielded an IC50 in experiment [1] below 50 nM. Also, the EC50 in experiment [2] is above 100 nM; in experiment [3] it was below 50 nM; in experiment [4] (setting [5]) it was below 50 nM.

Source of the values: patent US8946273B2, “S-Triazolyl alpha-mercapto acetanilides as inhibitors of HIV reverse transcriptase” (priority 2011, dated 2015).
